Data on 42 molecules can be found in patent US20250171459A1, “2-METHYL-4',5'-DIHYDROSPIRO[PIPERIDINE-4,7'-THIENO[2,3-C]PYRAN] DERIVATIVES AS INHIBITORS OF APOL1 AND METHODS OF USING SAME” (Vertex Pharmaceuticals Incorporated, priority 2022, published 2025).

The target in the assay is T1, APOL1 (Homo sapiens, UniProt O14791).
T1 sequence (O14791 1-398 S342G/I384M): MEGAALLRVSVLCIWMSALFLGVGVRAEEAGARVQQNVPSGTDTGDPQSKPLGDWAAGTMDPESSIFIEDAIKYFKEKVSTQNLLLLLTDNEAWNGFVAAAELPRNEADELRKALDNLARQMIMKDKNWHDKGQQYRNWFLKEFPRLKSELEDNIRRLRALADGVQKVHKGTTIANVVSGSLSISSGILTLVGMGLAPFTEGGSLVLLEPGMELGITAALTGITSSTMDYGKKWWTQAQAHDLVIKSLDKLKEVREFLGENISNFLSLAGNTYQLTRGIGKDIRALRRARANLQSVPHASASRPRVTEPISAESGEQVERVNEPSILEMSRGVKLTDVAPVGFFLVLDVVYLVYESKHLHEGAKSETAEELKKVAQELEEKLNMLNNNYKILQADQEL
The experiment in a line: MultiTox-Fluor Multiplex Cytotoxicity Assay in tet-inducible APOL1 T-REx-HEK293 cells (cell rescue, ratio of dead to live cells). The format is cell-based. Conditions: tet-inducible transgenic APOL1 T-REx-HEK293 cell lines, 50 ng/mL tet, 24 hours; read-out: IP50 (i.e., IC50 for cell proliferation). In short, it runs like this:
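T-REx-HEK293 cells with tet-inducible APOL1 were treated with compound (10 μM top, 10-point 3-fold dilution, duplicate) plus 50 ng/mL tetracycline for 24 h at 37° C, in DMEM with 2% tet-free FBS. MultiTox-Fluor protease signals gave a dead/live ratio, normalized to no tet (100% viability) and tet alone (0%).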
`C[C@H]1C[C@@]2(CCN1Cc1cn(CCS(C)(=O)=O)nn1)OCCc1c2sc(C(F)(F)F)c1CO` [Compound 871, [(2′S, 7R)-2′-methyl-1′-[[1-(2-methylsulfonylethyl)triazol-4-yl]methyl]-2-(trifluoromethyl)spiro[4,5-dihydrothieno[2,3-c]pyran-7,4′-piperidine]-3-yl]methanol]: the IC50 is under 100 nM.

With `C[C@H]1C[C@@]2(CCN1Cc1cnn(CCS(C)(=O)=O)c1)OCCc1c2sc(C(F)(F)F)c1CO` [Compound 872, [(2′S,7R)-2′-methyl-1′-[[1-(2-methylsulfonylethyl)pyrazol-4-yl]methyl]-2-(trifluoromethyl)spiro[4,5-dihydrothieno[2,3-c]pyran-7,4′-piperidine]-3-yl]methanol], the IC50 is under 100 nM.

In the case of `C[C@H]1C[C@@]2(CCN1Cc1cn[nH]c1)OCCc1c2sc(C(F)(F)F)c1CO` [Compound 873, [(2′S, 7R)-2′-methyl-1′-(1H-pyrazol-4-ylmethyl)-2-(trifluoromethyl)spiro[4,5-dihydrothieno[2,3-c]pyran-7,4′-piperidine]-3-yl]methanol], the IC50 is under 100 nM.

As to `C[C@H]1C[C@@]2(CCN1Cc1cn[nH]c1)OC[C@@H](O)c1cc(C(F)(F)F)sc12` [Compound 874, (2′S,4S,7R)-2′-methyl-1′-(1H-pyrazol-4-ylmethyl)-2-(trifluoromethyl)spiro[4,5-dihydrothieno[2,3-c]pyran-7,4′-piperidine]-4-ol], the IC50 is under 100 nM.

Consider `C[C@H]1C[C@@]2(CCN1Cc1cnn(CCO)c1)OCCc1c2sc(C(F)(F)F)c1CO` [Compound 875], for which the IC50 is under 100 nM.

Regarding `C[C@H]1C[C@@]2(CCN1Cc1cnn(CC(C)(CO)CO)c1)OCCc1c2sc(C(F)(F)F)c1CO` [Compound 876], the IC50 was under 100 nM.

Consider `C[C@H]1C[C@@]2(CCN1Cc1ccc3c(c1)n(C)c(=O)n3C)OCCc1c2sc(C(F)(F)F)c1CO` [Compound 877], for which the IC50 is under 100 nM.

Turning to `CC(O)c1c(C(F)(F)F)sc2c1CCO[C@@]21CCN(Cc2cnn(CCS(C)(=O)=O)c2)[C@@H](C)C1` (stereo partly drawn) [Compound 878], the IC50 is under 100 nM.

For the molecule `CC(O)c1c(C(F)(F)F)sc2c1CCO[C@@]21CCN(Cc2cnn(CCS(C)(=O)=O)c2)[C@@H](C)C1` (stereo partly drawn) [Compound 879], the IC50 is under 100 nM.

Regarding `C[C@H]1C[C@@]2(CCN1Cc1cnn(CCS(C)(=O)=O)c1)OCC(O)c1cc(C(F)(F)F)sc12` (stereo partly drawn) [Compound 880], the IC50 is under 100 nM.

In the case of `C[C@H]1C[C@@]2(CCN1Cc1cnn(C3CN(S(C)(=O)=O)C3)c1)OCCc1c2sc(C(F)(F)F)c1CO` [Compound 883], the IC50 is under 100 nM.

Turning to `C[C@H]1C[C@@]2(CCN1Cc1cnn(C3CN(S(C)(=O)=O)C3)c1)OC[C@@H](O)c1cc(C(F)(F)F)sc12` [Compound 884], the IC50 is under 100 nM.

`C[C@H]1C[C@@]2(CCN1Cc1cnn(CCO)c1)OC[C@@H](O)c1cc(C(F)(F)F)sc12` [Compound 885]: the IC50 was under 100 nM.

As to `C[C@H]1C[C@@]2(CCN1Cc1cnn(CC(=O)N(C)C)c1)OC[C@@H](O)c1cc(C(F)(F)F)sc12` [Compound 886], the IC50 is under 100 nM.

For `C[C@H]1C[C@@]2(CCN1Cc1cnn(C[C@H](O)C(C)(C)O)c1)OCCc1c2sc(C(F)(F)F)c1CO` [Compound 887, (2S)-1-[4-[[(2′S, 7R)-3-(hydroxymethyl)-2′-methyl-2-(trifluoromethyl)spiro[4,5-dihydrothieno[2,3-c]pyran-7,4′-piperidine]-1′-yl]methyl]pyrazol-1-yl]-3-methyl-butane-2,3-diol], the IC50 is under 100 nM.

Turning to `C[C@H]1C[C@@]2(CCN1Cc1cnn(C[C@@H](O)C(C)(C)O)c1)OCCc1c2sc(C(F)(F)F)c1CO` [Compound 888, (2R)-1-[4-[[(2′S, 7R)-3-(hydroxymethyl)-2′-methyl-2-(trifluoromethyl)spiro[4,5-dihydrothieno[2,3-c]pyran-7,4′-piperidine]-1′-yl]methyl]pyrazol-1-yl]-3-methyl-butane-2,3-diol], the IC50 is under 100 nM.

As for `C[C@H]1C[C@@]2(CCN1Cc1cnn(C[C@H](O)C(C)(C)O)c1)OC[C@@H](O)c1cc(C(F)(F)F)sc12` [Compound 889, (2S)-1-[4-[[(2′S,4S,7R)-4-hydroxy-2′-methyl-2-(trifluoromethyl)spiro[4,5-dihydrothieno[2,3-c]pyran-7,4′-piperidine]-1′-yl]methyl]pyrazol-1-yl]-3-methyl-butane-2,3-diol], the IC50 was under 100 nM.

`C[C@H]1C[C@@]2(CCN1Cc1cnn(C[C@@H](O)C(C)(C)O)c1)OC[C@@H](O)c1cc(C(F)(F)F)sc12` [Compound 890, (2R)-1-[4-[[(2′S,4S,7R)-4-hydroxy-2′-methyl-2-(trifluoromethyl)spiro[4,5-dihydrothieno[2,3-c]pyran-7,4′-piperidine]-1′-yl]methyl]pyrazol-1-yl]-3-methyl-butane-2,3-diol]: the IC50 was under 100 nM.

`CC(C)C(O)Cn1cc(CN2CC[C@]3(C[C@@H]2C)OCCc2c3sc(C(F)(F)F)c2CO)cn1` (stereo partly drawn) [Compound 891, 1-[4-[[(2′S, 7R)-3-(hydroxymethyl)-2′-methyl-2-(trifluoromethyl)spiro[4,5-dihydrothieno[2,3-c]pyran-7,4′-piperidine]-1′-yl]methyl]pyrazol-1-yl]-3-methyl-butan-2-ol]: the IC50 is under 100 nM.

Take `C[C@H]1C[C@@]2(CCN1Cc1cnn(CC(O)CC(F)(F)F)c1)OCCc1c2sc(C(F)(F)F)c1CO` (stereo partly drawn) [Compound 892]: the IC50 is under 100 nM.

Regarding `C[C@H]1C[C@@]2(CCN1Cc1cnn(CC(O)COCC(F)(F)F)c1)OCCc1c2sc(C(F)(F)F)c1CO` (stereo partly drawn) [Compound 893], the IC50 is under 100 nM.

As to `C[C@H]1C[C@@]2(CCN1Cc1cnn(CC(O)C(F)(F)F)c1)OCCc1c2sc(C(F)(F)F)c1CO` (stereo partly drawn) [Compound 894], the IC50 was under 100 nM.

Take `C[C@H]1C[C@@]2(CCN1Cc1cnn(CC(C)(C)O)c1)OCCc1c2sc(C(F)(F)F)c1CO` [Compound 895]: the IC50 was under 100 nM.

For the molecule `C[C@H]1C[C@@]2(CCN1Cc1cnn(CCC(N)=O)c1)OCCc1c2sc(C(F)(F)F)c1CO` [Compound 896, 3-[4-[[(2′S, 7R)-3-(hydroxymethyl)-2′-methyl-2-(trifluoromethyl)spiro[4,5-dihydrothieno[2,3-c]pyran-7,4′-piperidine]-1′-yl]methyl]pyrazol-1-yl]propanamide], the IC50 is under 100 nM.

For the molecule `C[C@H]1C[C@@]2(CCN1Cc1cnn(CC(=O)N(C)C)c1)OCCc1c2sc(C(F)(F)F)c1CO` [Compound 897], the IC50 is under 100 nM.

In the case of `C[C@H]1C[C@@]2(CCN1Cc1cnn(CCCC(N)=O)c1)OCCc1c2sc(C(F)(F)F)c1CO` [Compound 898], the IC50 is under 100 nM.

Turning to `C[C@H]1C[C@@]2(CCN1Cc1cnn(C[C@H](O)CO)c1)OCCc1c2sc(C(F)(F)F)c1CO` [Compound 899], the IC50 lay within 100 to 500 nM.

On to `CCNC(=O)CCn1cc(CN2CC[C@]3(C[C@@H]2C)OCCc2c3sc(C(F)(F)F)c2CO)cn1` [Compound 900], for which the IC50 was under 100 nM.

As for `CNC(=O)Cn1cc(CN2CC[C@]3(C[C@@H]2C)OCCc2c3sc(C(F)(F)F)c2CO)cn1` [Compound 901], the IC50 was under 100 nM.

`C[C@H]1C[C@@]2(CCN1Cc1cnn(Cc3cnccn3)c1)OCCc1c2sc(C(F)(F)F)c1CO` [Compound 902]: the IC50 is under 100 nM.

With `C[C@H]1C[C@@]2(CCN1Cc1cnn(CC(=O)NC3CC3)c1)OCCc1c2sc(C(F)(F)F)c1CO` [Compound 903], the IC50 was under 100 nM.

Consider `CCN(CC)C(=O)Cn1cc(CN2CC[C@]3(C[C@@H]2C)OCCc2c3sc(C(F)(F)F)c2CO)cn1` [Compound 904], for which the IC50 was under 100 nM.

On to `C[C@H]1C[C@@]2(CCN1Cc1cnn(CC3CCOCC3)c1)OCCc1c2sc(C(F)(F)F)c1CO` [Compound 905], for which the IC50 is under 100 nM.

Take `COCCn1cc(CN2CC[C@]3(C[C@@H]2C)OCCc2c3sc(C(F)(F)F)c2CO)cn1` [Compound 906]: the IC50 was under 100 nM.

As to `C[C@H]1C[C@@]2(CCN1Cc1cnn(C3CS(=O)(=O)C3)c1)OCCc1c2sc(C(F)(F)F)c1CO` [Compound 907], the IC50 was under 100 nM.

For `C[C@@H](CO)Cn1cc(CN2CC[C@]3(C[C@@H]2C)OCCc2c3sc(C(F)(F)F)c2CO)cn1` [Compound 908], the IC50 is under 100 nM.

As to `CC(C)NC(=O)Cn1cc(CN2CC[C@]3(C[C@@H]2C)OCCc2c3sc(C(F)(F)F)c2CO)cn1` [Compound 909], the IC50 is under 100 nM.

Take `C[C@H]1C[C@@]2(CCN1Cc1cnn(CC3(C)COC3)c1)OCCc1c2sc(C(F)(F)F)c1CO` [Compound 910]: the IC50 was 100 to 500 nM.

Consider `C[C@H]1C[C@@]2(CCN1Cc1cnn(C3CCS(=O)(=O)C3)c1)OCCc1c2sc(C(F)(F)F)c1CO` (stereo partly drawn) [Compound 911, [(2′S, 7R)-1′-[[1-(1,1-dioxothiolan-3-yl)pyrazol-4-yl]methyl]-2′-methyl-2-(trifluoromethyl)spiro[4,5-dihydrothieno[2,3-c]pyran-7,4′-piperidine]-3-yl]methanol], for which the IC50 was under 100 nM.

Consider `Cc1cnc(Cn2cc(CN3CC[C@]4(C[C@@H]3C)OCCc3c4sc(C(F)(F)F)c3CO)cn2)cn1` [Compound 912], for which the IC50 was under 100 nM.

As for `C[C@H]1C[C@@]2(CCN1Cc1cnn(CC(=O)NCC(F)F)c1)OCCc1c2sc(C(F)(F)F)c1CO` [Compound 913], the IC50 is under 100 nM.

`C[C@H]1C[C@@]2(CCN1Cc1cnn(Cc3nnnn3C)c1)OCCc1c2sc(C(F)(F)F)c1CO` [Compound 914]: the IC50 was under 100 nM.
